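48-hour exposure; five concentrations; linearly interpolated endpoints. Here, GI50 denotes the concentration required for 50% inhibition of growth.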 Calls of active or inactive are those of the source. Rule as the data show it: active = GI50 up to about 1.1 µM and inactive = higher.
Columns and labels:
Assay in all cases: NCI-60 cell line screen, 48 h
HCT-116 = tested on: HCT-116
OVCAR-4 = tested on: OVCAR-4
CCRF-CEM = tested on: CCRF-CEM
T47D = tested on: T47D
DU-145 = tested on: DU-145
K562 = tested on: K562
SK-OV-3 = tested on: SK-OV-3
RXF 393 = tested on: RXF 393
Hs-578T = tested on: Hs-578T
NCI/ADR-RES = tested on: NCI/ADR-RES
SK-MEL-5 = tested on: SK-MEL-5
HT-29 = tested on: HT-29
A549 = tested on: A549
SK-MEL-2 = tested on: SK-MEL-2
IGROV-1 = tested on: IGROV-1
ACHN = tested on: ACHN
NCI-H460 = tested on: NCI-H460
CAKI-1 = tested on: CAKI-1
SNB-19 = tested on: SNB-19

Row | Compound | GI50 (HCT-116) | GI50 (OVCAR-4) | GI50 (CCRF-CEM) | GI50 (T47D) | GI50 (DU-145) | GI50 (K562) | GI50 (SK-OV-3) | GI50 (RXF 393) | GI50 (Hs-578T) | GI50 (NCI/ADR-RES) | GI50 (SK-MEL-5) | GI50 (HT-29) | GI50 (A549) | GI50 (SK-MEL-2) | GI50 (IGROV-1) | GI50 (ACHN) | GI50 (NCI-H460) | GI50 (CAKI-1) | GI50 (SNB-19)
1 | O=C(CCCN1CCC2(CC1)NC(=O)c1ccccc1O2)c1ccc(F)cc1 | > 100 µM (inactive) | 91 µM (inactive) | 90.4 µM (inactive) | 84.3 µM (inactive) | > 100 µM (inactive) | 39.7 µM (inactive) | > 100 µM (inactive) | 64.7 µM (inactive) | 96.8 µM (inactive) | > 100 µM (inactive) | 44.9 µM (inactive) | 43.3 µM (inactive) | > 100 µM (inactive) | > 100 µM (inactive) | > 100 µM (inactive) | > 100 µM (inactive) | > 100 µM (inactive) | > 100 µM (inactive) | –
2 | CC(C)(C)C1=CC(=CC=C2C=CN(CCCCCCCCCCCO)C=C2)C=C(C(C)(C)C)C1=O | 0.951 µM (active) | 1.76 µM (inactive) | 0.652 µM (active) | 0.498 µM (active) | 2.88 µM (inactive) | 1.06 µM (active) | 2.16 µM (inactive) | 0.9 µM (active) | 1.87 µM (inactive) | 2.96 µM (inactive) | 1.73 µM (inactive) | 3.37 µM (inactive) | 1.62 µM (inactive) | 1.83 µM (inactive) | 0.815 µM (active) | 2.19 µM (inactive) | 2.01 µM (inactive) | 2.48 µM (inactive) | 1.58 µM (inactive)
3 | Cn1c(=O)c2nc(CCS)[nH]c2n(C)c1=O | > 100 µM (inactive) | > 100 µM (inactive) | 55 µM (inactive) | > 100 µM (inactive) | > 100 µM (inactive) | > 100 µM (inactive) | 68.1 µM (inactive) | 90.6 µM (inactive) | 31.4 µM (inactive) | > 100 µM (inactive) | > 100 µM (inactive) | > 100 µM (inactive) | > 100 µM (inactive) | > 100 µM (inactive) | > 100 µM (inactive) | > 100 µM (inactive) | > 100 µM (inactive) | > 100 µM (inactive) | > 100 µM (inactive)
4 | Clc1cc(Cl)cc(C2ON=C(c3ccccc3)N2C23CC4CC(CC(C4)C2)C3)c1 (stereo not given) | > 10 µM (inactive) | > 10 µM (inactive) | > 10 µM (inactive) | > 10 µM (inactive) | > 10 µM (inactive) | > 10 µM (inactive) | > 10 µM (inactive) | > 10 µM (inactive) | > 10 µM (inactive) | > 10 µM (inactive) | > 10 µM (inactive) | > 10 µM (inactive) | > 10 µM (inactive) | > 10 µM (inactive) | > 10 µM (inactive) | > 10 µM (inactive) | > 10 µM (inactive) | > 10 µM (inactive) | > 10 µM (inactive)
5 | Oc1ccc(Cl)cc1-c1cc(-c2ccccc2)nc(S)n1 | 28.8 µM (inactive) | > 100 µM (inactive) | > 100 µM (inactive) | > 100 µM (inactive) | > 100 µM (inactive) | > 100 µM (inactive) | 29.5 µM (inactive) | 71.3 µM (inactive) | 29.2 µM (inactive) | 97.9 µM (inactive) | > 100 µM (inactive) | > 100 µM (inactive) | > 100 µM (inactive) | 27.2 µM (inactive) | > 100 µM (inactive) | 30.3 µM (inactive) | > 100 µM (inactive) | > 100 µM (inactive) | 42.9 µM (inactive)
6 | CC(=O)NNc1nc(C)c(C(/C=C/c2ccccc2O)=N/NC(=O)c2ccncc2)s1 | > 100 µM (inactive) | > 100 µM (inactive) | > 100 µM (inactive) | > 100 µM (inactive) | > 100 µM (inactive) | – | > 100 µM (inactive) | > 100 µM (inactive) | > 100 µM (inactive) | > 100 µM (inactive) | > 100 µM (inactive) | > 100 µM (inactive) | > 100 µM (inactive) | > 100 µM (inactive) | > 100 µM (inactive) | > 100 µM (inactive) | > 100 µM (inactive) | > 100 µM (inactive) | > 100 µM (inactive)
7 | CCCC(=O)OCC1(CO)C/C(=C/CC(C(C)C)C(C)C)C(=O)O1 (stereo not given) | > 100 µM (inactive) | > 100 µM (inactive) | > 100 µM (inactive) | > 100 µM (inactive) | > 100 µM (inactive) | – | > 100 µM (inactive) | > 100 µM (inactive) | > 100 µM (inactive) | > 100 µM (inactive) | 54.7 µM (inactive) | > 100 µM (inactive) | > 100 µM (inactive) | > 100 µM (inactive) | > 100 µM (inactive) | > 100 µM (inactive) | > 100 µM (inactive) | > 100 µM (inactive) | > 100 µM (inactive)
